According to US10610509B2, “Combinations of prostaglandins and nitric oxide donors” (NICOX S.A., priority 2014, dated 2020):

Experiments:
[1] = test system: ocular hypertensive New Zealand White (NZW) rabbits; assay: Intraocular pressure (IOP) lowering activity in ocular hypertensive NZW rabbits (hypertonic saline injection); format: in vivo; conditions: versus vehicle and versus basal IOP, mean±standard error, compound (12) 0.3%, travoprost 0.004% topical, hypertonic saline (5%) intravitreal
Protocol: Intraocular Pressure (IOP) Lowering Activity in Ocular Hypertensive New Zealand White (NZW) Rabbits
The Intraocular pressure (IOP) lowering activity of the combination of compound (12) (0.3%) and travoprost (0.004%) was assessed in ocular hypertensive rabbits.
Adult male NZW rabbits weighting 1.8-2.0 Kg were used in the experiments.
NZW rabbits were injected with 0.1 ml of hypertonic saline (5%) into the vitreous humor of both eyes. IOP was measured using a Tono-Pen AVIA Vet® at different time points (30, 60, 120 and 240 min) following hypertonic saline injection as well as before topical drug application (basal).
Travoprost (0.004%) or vehicle (5% cremophor-EL; 0.3% DMSO; 0.2 mg/ml BAC in PBS pH 6.0) were topically administered 15 min before hypertonic saline injection.
Compound (12) (0.3%) or vehicle (5% cremophor-EL; 0.3% DMSO; 0.2 mg/ml BAC in PBS pH 6.0) were topically administered immediately after hypertonic saline injection. Eyes were randomly assigned to different treatment groups.
One drop of 0.4% oxybuprocaine hydrochloride (Novesine, Sandoz) was instilled in each eye immediately before each set of ocular pressure measurements.
The ocular hypotensive effects (at […] following topical administration) of travoprost, compound (12) and the combination of compound (12) and travoprost are reported in table 2.
The results reported in table 2 are expressed as IOP change (at 30, 60, 120 and 300 minutes following topical administration) versus vehicle and versus IOP at basal (mean±standard error).

[2] = test system: ocular normotensive New Zealand White (NZW) rabbits; assay: Intraocular pressure (IOP) lowering activity in ocular normotensive NZW rabbits; format: in vivo; conditions: versus vehicle and versus basal IOP, mean±standard error, compound (12) 0.1%, travoprost 0.004% eye drops
Protocol: Intraocular Pressure (IOP) Lowering Activity in Ocular Normotensive New Zealand White (NZW) Rabbits
The Intraocular pressure (IOP) lowering activity of the combination of compound (12) (0.1%) and travoprost (0.004%) was assessed in ocular normotensive rabbits.
Adults male NZW rabbits weighting 1.8-2.0 Kg were used in the experiments.
IOP was measured using a pneumatonometer 30 CLASSIC™ before topical application (basal) and at different time points (30, 60, 120, 180, 240 and 300 min) thereafter. Travoprost (0.004%) or vehicle (5% cremophor-EL; 0.3% DMSO; 0.2 mg/ml BAC in PBS pH 6.0) were topically administered 5 minutes prior to compound (12) (0.1%) or vehicle (same as above) as eye drops into the conjunctiva pocket. Eyes were randomly assigned to different treatment groups. One drop of 0.4% oxybuprocaine hydrochloride (Novesine, Sandoz) was instilled in each eye immediately before each set of ocular pressure measurements.
Results are reported in the table in which the ocular hypotensive activity of the combination, of compound (12) and of travoprost are expressed as IOP change (at 30, 60, 120 and 300 minutes following topical administration) versus vehicle and versus IOP at basal (mean±standard error).

[3] = 30 minutes after topical administration
[4] = 60 minutes after topical administration
[5] = 120 minutes after topical administration
[6] = 180 minutes after topical administration
[7] = 300 minutes after topical administration

| SMILES | IOP change ([1]; 30 minutes) | IOP change ([1]; 60 minutes) | IOP change ([1]; 120 minutes) | IOP change ([1]; 240 minutes) | IOP change [2, 3] | IOP change [2, 4] | IOP change [2, 5] | IOP change [2, 6] | IOP change [2, 7] |
| --- | --- | --- | --- | --- | --- | --- | --- | --- | --- |
| CC(C)OC(=O)CCC/C=C\C[C@@H]1[C@@H](/C=C/[C@@H](O)COc2cccc(C(F)(F)F)c2)[C@H](O)C[C@@H]1O [Travoprost, 5-heptenoic acid, 7-[(1R,2R,3R,5S)-3,5-dihydroxy-2-[(1E,3R)-3-hydroxy-4-[3-(trifluoromethyl)phenoxy]-1-buten-1-yl]cyclopentyl]-, 1-methylethyl ester, (5Z)-] | −2.4 ± 0.5 mmHg | −5.0 ± 0.8 mmHg | −5.1 ± 0.7 mmHg | −1.7 ± 0.4 mmHg | −1.6 ± 1.6 mmHg | −0.9 ± 1.0 mmHg | −1.1 ± 1.2 mmHg | −0.8 ± 0.4 mmHg | −0.6 ± 0.1 mmHg |
| O=C(CCC[C@@H](CO[N+](=O)[O-])O[N+](=O)[O-])O[C@@H]1CO[C@H]2[C@@H]1OC[C@H]2O [Compound (12), (S)-((3R,3aR,6R,6aR)-6-hydroxyhexahydrofuro[3,2-b]furan-3-yl) 5,6-bis(nitrooxy)hexanoate] | −2.4 ± 0.6 mmHg | −7.7 ± 0.5 mmHg | −6.4 ± 0.5 mmHg | −1.8 ± 0.6 mmHg | −1.4 ± 0.6 mmHg | −2.1 ± 0.4 mmHg | −0.3 ± 0.3 mmHg | 0.1 ± 0.5 mmHg | 1.1 ± 0.8 mmHg |
